Laboratory results: patent US20260158074A1, “A Cell Surface Marker Signature for Arrhythmogenic Pluripotent Stem Cell-Derived Cardiomyocytes” (Western Sydney Local Health District, priority 2022, published 2026)

How the values were obtained:
[1] = test system: PSC-CMs cultured in monolayer; assay: In-vitro spontaneous beat rate of PSC-CMs under anti-arrhythmic drugs; type: cell-based, human; conditions: 0-100 μM drug concentrations
Source text: FIG. 3. […] A further 2 animals underwent sham infarction and vehicle injection. (b) Representative CMR reconstruction (created with ADAS 3D) merged with epicardial voltage map, used to choose, and annotate border and infarct zone injection sites (black circles). (c) Plot depicting the percentage of time per day each cell (red), cell and drug (blue), or vehicle (green) recipient spent in ventricular arrhythmia over course of study protocol. […] (f) Dose-dependent suppression of PSC-CM contraction rate using amiodarone (dark purple, square) and ivabradine (light purple, circle) in vitro (0-100 μM drug concentrations). […] (h) Telemetry strip from representative cell and anti-arrhythmic recipient showing predominantly sinus rhythm with occasional ventricular ectopic beat. (i-k) Arrythmia parameters from day 0 to day 28 for each subject, grouped by treatment allocation (presented as mean±SEM). […]
Given the automatic mechanism for PSC-CM EAs, the inventors hypothesised that suppressing the rate of graft automaticity below that of the native sinus node would reduce arrhythmia burden. […] To further interrogate this finding the beat rates of sinus rhythm and EAs for each animal were analysed.

[2] = test system: H9 human embryonic stem cell line containing a gCaMP6f reporter, differentiating aggregates; assay: Bioreactor PSC-CM differentiation with retinoic acid signalling activated: cTnT flow cytometry, qPCR, scRNA-seq, beat frequency; type: cell-based
Protocol: The H9 cell line containing the gCaMP6f fluorescent calcium reporter was used for all experiments (provided by University of Queensland StemCore facility). Each production run was started from a frozen working cell bank (WCB) cryovial, which was expanded for 8 days in monolayer on matrigel (Corning) using the commercially available medium mTeSR™ Plus (Stem Cell Technologies) (FIG. 1). On Day −3, cells were inoculated at a density of 2.5-3.0×10^5 cells/mL in mTeSR 3D supplemented with 10 μM Y-27632 (TOCRIS Bioscience) and 10 ug/mL of a thermoresponsive polymer pNIPAM conjugated to fibronectin (Chen, X. et al. Tissue Eng Part C Methods 24, 146-157) to form aggregates. A DASbox (Eppendorf) stirred tank bioreactor system was used for aggregate formation and suspensions controlled at 37.2° C., pH 7.2, and 30% DO. At day −1, rapamycin (Merck) was added to a final concentration of 5 nM to enhance survival during differentiation. […]
The expression of cTnT was measured on a Cytoflex Flow Cytometer (Beckman Coulter). […]
Reactions were performed in technical triplicate. Quantitative PCR was performed on the BioRad CFX96 Real-Time PCR Detection System with standard cycling parameters described in the master mix protocol. […] Fold difference in expression was calculated using the comparative CT formula, using GAPDH cDNA from a reference sample. […]

hPSC SCVI8 = assay: DEAB-treated cardiomyocyte differentiation, RT-PCR at day 14; type: cell-based, human; conditions: DEAB 1 nM-100 μM, day 3 to 7 or day 5 to 7
Protocol: hPSC SCVI8 were cultured in Matrigel® (Corning, Cat. No. 354277) coated petri dishes in complete mTeSR™ Plus basal medium (StemCell Technologies, Cat. No. 100-0276) supplemented with 20% (v/v) mTeSR™ Plus 5× supplement (StemCell Technologies) and 0.5% (v/v) streptomycin and penicillin (ThermoFisher, Cat. No. 15140163) at 37° C. in 5% CO2. Media was changed daily and cells passaged when confluency reached approximately 80%.
Cardiomyocyte differentiation was achieved using small-molecule modulators of canonical Wnt signalling as described by Lian et al. (Lian et al. […]; 8(1):162-175), but with the addition of 1 nM, 1 μM or 100 μM 4-diethylaminobenzaldehyde (DEAB, Sigma Merck, Cat. No. D86256) at either day 3 or 5 of differentiation (FIG. 9a.). In brief, hPSC SCVI8 cells from confluent dishes were washed once with Dulbeco's Phosphate Buffered Saline (DPBS) without calcium and magnesium (Lonza, Cat. No. 17-512F), and harvested with TrypLE™ Express Enzyme (ThermoFisher, Cat. No. 12604021) and seeded at a concentration of 3.75×10^5 cells/mL in Matrigel® coated 12-well plates at a volume of 2 mL of complete mTeSR Plus basal medium and 10 μM Y-27632 (RHO/ROCK) inhibitor (StemCell Technologies, Cat. No. 072304). At day 0 of differentiation, cells were washed once using DPBS and transferred to mesoderm induction media that consisted of 6 μM CHIR99021 (GSK3 inhibitor, Tocris, Cat. No. 4423) in complete Roswell Park Memorial Institute (RPMI) 1640 medium, no glutamine (ThermoFisher, Cat. No. 21870092) supplemented with 2% (v/v) B-27 supplement, minus insulin (ThermoFisher, Cat. No. A1895601), 0.5% (v/v) streptomycin and penicillin and 1% (v/v) GlutaMAX™ supplement (ThermoFisher, Cat. No. 35050061). At day 1, CHIR99021 was removed, and cells maintained in complete RPMI minus insulin. At day 3, cells were transferred to cardiac induction media that consisted of 5 μM IWP-2 (Tocris, Cat. No. 3533) in complete RPMI minus insulin and was removed at day 5. At day 7 of differentiation, cells were maintained in complete RPMI supplemented with 2% (v/v) B-27™ Supplement (50×) (ThermoFisher, Cat. No. 17504-001), 0.5% (v/v) streptomycin and penicillin and 1% (v/v) GlutaMAX™ supplement. The media was changed every 2-3 days. Cells were harvested at day 14 for quantitative real-time polymerase chain reaction (RT-PCR).
Total cellular RNA was extracted using the Isolate II RNA Mini Kit (Bioline, Cat. No. BIO-52073) as per the manufacturer's instructions. Reverse transcription was performed with M-MLV Reverse Transcriptase (Promega, Cat. No. M1701) following the manufacturer's protocol. mRNA gene expression was assessed by qPCR using SensiFAST™ SYBR® No-ROX Kit (Meridian Bioscience, Cat. No. BIO-98050) on the Bio-Rad CFX384 Real-Time PCR detection system, with the following PCR conditions: 95° C. for 2 min and 40 cycles of 95° C. for 5 s, 60° C. for 10 s and 72° C. for 15 s, followed by melt curve analysis. All primers used for detection of mRNA expression are outline in Table 3. All data was normalised to the reference gene 18S and normalised to control cells (non-treated PSC-CM).

In the case of `CCCCc1oc2ccccc2c1C(=O)c1cc(I)c(OCCN(CC)CC)c(I)c1` [amiodarone], the “spontaneous beat rate of PSC-CMs” value [1] is reported as “dose-dependent reduction in the spontaneous beat rate”.
In the case of `CC1=C(/C=C/C(C)=C/C=C/C(C)=C/C(=O)O)C(C)(C)CCC1` [Retinoic acid, retinoic acid], the cTnT expression ([2]; RA signalling activated day 2 to day 6, n=12, control differentiations in parallel 83.6±7.0%) is reported as 62.4±33.1% and the “rate of spontaneous contraction of aggregates” value ([2]; day 15 before aggregate dissociation, n=6, control 14.2±5.5 b.p.m) is reported as 50.7±16.8 b.p.m.
For `COc1cc2c(cc1OC)CC(=O)N(CCCN(C)C[C@H]1Cc3cc(OC)c(OC)cc31)CC2` [Ivabradine], the “spontaneous beat rate of PSC-CMs” value [1] was “dose-dependent reduction in the spontaneous beat rate”.
In the case of `CCN(CC)c1ccc(C=O)cc1` [DEAB, 4-diethylaminobenzaldehyde], the “expression level of IRX4” value (hPSC SCVI8; RT-PCR day 14) is reported as “no significant difference”, the “expression level of KCNJ3” value (hPSC SCVI8; RT-PCR day 14) is reported as “significant lower expression levels” and the “expression level of MYH7” value (hPSC SCVI8; RT-PCR day 14) is reported as “no significant difference”. The “expression level of MYL2v” value (hPSC SCVI8; RT-PCR day 14) was “no significant difference”, the “expression level of SHOX2” value (hPSC SCVI8; RT-PCR day 14) was “significant lower expression levels” and the “expression level of cTnT” value (hPSC SCVI8; RT-PCR day 14, relative to 18S, versus non-treated PSC-CM) was “no significant difference”.
